One may read the IC50 as the concentration that inhibits the measured activity by half. One may read the melting point as the temperature of the solid-liquid transition.

One compound from article PMC9230671, “Fluorochrome Selection for Imaging Intraoperative Ovarian Cancer Probes” (Pharmaceuticals, 2022) can be followed below.

Marks after values point to notes of the source that are not given here. A value given as a limit tells only on which side of the number the result lay.

For data set [1], the target named is T1, COX-1 (Ovis aries, UniProt P05979).
T1 construct: purchased Cayman Chemicals (bought through Sigma-Aldrich) 560131
T1 sequence (P05979 25-600): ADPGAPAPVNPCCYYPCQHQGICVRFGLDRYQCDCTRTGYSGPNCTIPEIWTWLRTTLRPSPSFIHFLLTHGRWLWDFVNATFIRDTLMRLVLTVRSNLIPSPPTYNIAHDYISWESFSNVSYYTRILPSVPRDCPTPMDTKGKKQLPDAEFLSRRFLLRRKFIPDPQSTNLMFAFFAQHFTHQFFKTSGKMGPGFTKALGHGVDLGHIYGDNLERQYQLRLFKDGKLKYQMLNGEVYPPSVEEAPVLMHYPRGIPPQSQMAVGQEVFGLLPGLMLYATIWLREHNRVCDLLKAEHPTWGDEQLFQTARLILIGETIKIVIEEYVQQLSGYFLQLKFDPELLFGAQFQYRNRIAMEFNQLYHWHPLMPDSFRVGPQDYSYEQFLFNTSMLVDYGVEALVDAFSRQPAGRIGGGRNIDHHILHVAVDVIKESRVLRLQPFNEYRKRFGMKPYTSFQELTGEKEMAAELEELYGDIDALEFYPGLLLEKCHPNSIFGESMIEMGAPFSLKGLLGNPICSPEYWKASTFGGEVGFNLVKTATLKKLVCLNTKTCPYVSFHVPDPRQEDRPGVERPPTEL
Put plainly: COX-1 inhibition, COX (ovine/human) inhibitor screening assay kit. Type of data set: biochemical. As to the method: (§1) Cell culture reagents were purchased from Euroclone (Milan, Italy). COX (ovine/human) inhibitor screening assay kit (Catalog No. 560131, Cayman Chemicals, Ann Arbor, MI, USA) was purchased from Sigma-Aldrich, Burlington, MA, USA. […] The other reagents were purchased from Sigma-Aldrich, Burlington, MA, USA.
(§2) The COX-1/2 inhibition screening experiments were carried out according to the manufacturer’s instructions. The plate was incubated for 60 min at r.t. under shaking and read with the Tecan Infinite 200 Microplate Reader at λ = 405 nm.
(§3) The graph between percent inhibition of the enzyme and corresponding concentration of the compound provided IC50 values for the probe compounds.

The target in data set [2] is T2, COX-2 (Homo sapiens, UniProt P35354).
T2 construct: purchased Cayman Chemicals (bought through Sigma-Aldrich) 560131
T2 sequence (P35354 18-604): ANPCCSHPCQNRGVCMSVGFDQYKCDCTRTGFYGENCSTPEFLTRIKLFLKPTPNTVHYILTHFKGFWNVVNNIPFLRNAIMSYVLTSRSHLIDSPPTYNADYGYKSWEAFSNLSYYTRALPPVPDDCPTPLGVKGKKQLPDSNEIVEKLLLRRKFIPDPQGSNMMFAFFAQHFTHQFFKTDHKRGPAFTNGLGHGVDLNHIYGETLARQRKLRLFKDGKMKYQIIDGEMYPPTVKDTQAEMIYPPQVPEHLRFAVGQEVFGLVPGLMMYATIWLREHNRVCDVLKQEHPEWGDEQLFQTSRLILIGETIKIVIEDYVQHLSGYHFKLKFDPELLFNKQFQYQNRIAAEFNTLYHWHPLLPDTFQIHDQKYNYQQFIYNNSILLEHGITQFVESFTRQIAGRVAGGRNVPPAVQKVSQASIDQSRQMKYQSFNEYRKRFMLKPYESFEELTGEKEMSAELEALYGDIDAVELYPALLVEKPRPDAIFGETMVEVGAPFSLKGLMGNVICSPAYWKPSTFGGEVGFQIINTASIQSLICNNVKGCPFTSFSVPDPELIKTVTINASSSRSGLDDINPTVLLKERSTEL
Put plainly: COX-2 inhibition, COX (ovine/human) inhibitor screening assay kit. It counts as biochemical. As to the method:
as §1, §2, §3

Data set [3] in a line: Fluorescence property measurements (absorption/emission spectra). Type of data set: physicochemical. The conditions noted are these: ethanol (10^−5 M). The arrangement: Stokes Shift: unit not given here. The procedure:
The λabs and λem, of the target compounds were measured in aqueous solution (phosphate-buffered saline solution, PBS) at the concentration of 10^−5 M (Table 1).
Fluorescence spectra of all target compounds were determined in PBS and EtOH solutions (Table 1) with a Tecan Infinite 200 Microplate Reader. In all experiments, the excitation and the emission bandpass were set at λ = 5 nm. The emission spectra were obtained from λ = 280 to 850 nm, with excitation set at the appropriate excitation wavelength. Absorption spectra were recorded with a Shimadzu UV-1800 spectrophotometer.

A short description of data set [4]: Solubility in PBS (remark). Type of data set: physicochemical. From the text:
Despite of the solvent, the Stokes shift was very low with this fluorophore.

As for `CCCN1C(=O)c2cccc3c(Nc4ccc(NC(=O)Cc5onc(-c6ccc(OC)cc6)c5-c5ccc(OC)cc5)cc4)ccc(c23)C1=O` [Compound 17b, 2-(3,4-Bis(4-methoxyphenyl)isoxazol-5-yl)-N-(4-((1,3-dioxo-2-propyl-2,3-dihydro-1H-benzo[de]isoquinolin-6-yl)amino)phenyl)acetamide], the melting point fell in the range of 112 to 115 °C. Further, in data set [1], the IC50 is 150 nM and the “SI (selectivity index)” value is listed as > 333. Besides, the inhibition at 50 µM in data set [1] (at 50 µM compound final concentration, read-out: COX-1 % inhib.) is 49%. In addition, the IC50 in data set [2] is > 50000 nM. Besides, in data set [2] (up to 50 µM final concentration), the “COX-2 inhibitory activity (in words)” value is “almost inactive”. In addition, in data set [3], the “Stokes Shift” value was found to be 92, the λabs is recorded as 450 ^b nm and the λem is 542 ^b nm. For the same compound, the “solubility in PBS” value in data set [4] is reported as “low solubility”.
